The results in this text go back to patent US8633207B2, “Quinazoline compounds and methods of use thereof” (Ambit Biosciences Corporation, priority 2010, dated 2014).

For one assay, the target named is T1, Tyk2 (Homo sapiens, UniProt P29597).
T1 construct: made in house; host or cells: T7 phage display, or HEK-293 cells (alternative)
The experiment in a line: Competition binding assay to determine Kd against JAK kinases: Tyk2. An excerpt:
(§1) Competition Binding Assay to Determine Binding Constants (Kd) of the Compounds Against JAK Kinases
(§2) Competition binding assays used herein were developed, validated and performed as described in Fabian et al., Nature Biotechnology 2005, 23, 329-336. Kinases were produced as fusions to T7 phage (See, Fabian et al. or WO04/015142) or alternatively, the kinases were expressed in HEK-293 cells and subsequently tagged with DNA for PCR detection (See, WO08/005,310). For the binding assays, streptavidin-coated magnetic beads were treated with biotinylated affinity ligands for 30 min at rt to generate affinity resins. The liganded beads were blocked with excess biotin and washed with blocking buffer (SeaBlock (Pierce), 1% BSA, 0.05% Tween 20, 1 mM DTT) to remove unbound ligand and to reduce non-specific binding. Binding reactions were assembled by combining kinase, liganded affinity beads, and test compounds in 1× binding buffer (20% SeaBlock, 0.17×PBS, 0.05% Tween 20, 6 mM DTT). Test compounds were prepared as 100× stocks in DMSO and rapidly diluted into the aqueous environment. DMSO was added to control assays lacking a test compound. Primary screen interactions were performed in polypropylene 384-well plates in a final volume of 34 μL, while Kd determinations were performed in polystyrene 96-well plates in a final volume of 135 μL. The assay plates were incubated at room temperature with shaking for 1 hour, long enough for binding reactions to reach equilibrium, and the affinity beads were washed extensively with wash buffer (1×PBS, 0.05% Tween 20) to remove unbound protein. The beads were then resuspended in elution buffer (1×PBS, 0.05% Tween 20, 2 μM non-biotinylated affinity ligand) and incubated at room temperature with shaking for 30 min. The kinase concentration in the eluates was measured by quantitative PCR. Each kinase was tested individually against each compound. Kds were determined using eleven serial threefold dilutions. A selectivity score, which is a quantitative measure of selectivity of a compound against a panel of enzymes, may be calculated for a compound by dividing the number of enzymes for which a compound meets a set criteria, (for example, a binding constant of 100 nM or less), by the total number of enzymes tested.

For the next assay, the target named is T2, JAK2 (Homo sapiens, UniProt O60674).
T2 construct: made in house; host or cells: T7 phage display, or HEK-293 cells (alternative)
Briefly: Competition binding assay to determine Kd against JAK kinases: JAK2.
Excerpt: as §1, §2

For the next assay, the target named is T3, JAK3 (Homo sapiens, UniProt P52333).
T3 construct: made in house; host or cells: T7 phage display, or HEK-293 cells (alternative)
T3 sequence (P52333 1-1124): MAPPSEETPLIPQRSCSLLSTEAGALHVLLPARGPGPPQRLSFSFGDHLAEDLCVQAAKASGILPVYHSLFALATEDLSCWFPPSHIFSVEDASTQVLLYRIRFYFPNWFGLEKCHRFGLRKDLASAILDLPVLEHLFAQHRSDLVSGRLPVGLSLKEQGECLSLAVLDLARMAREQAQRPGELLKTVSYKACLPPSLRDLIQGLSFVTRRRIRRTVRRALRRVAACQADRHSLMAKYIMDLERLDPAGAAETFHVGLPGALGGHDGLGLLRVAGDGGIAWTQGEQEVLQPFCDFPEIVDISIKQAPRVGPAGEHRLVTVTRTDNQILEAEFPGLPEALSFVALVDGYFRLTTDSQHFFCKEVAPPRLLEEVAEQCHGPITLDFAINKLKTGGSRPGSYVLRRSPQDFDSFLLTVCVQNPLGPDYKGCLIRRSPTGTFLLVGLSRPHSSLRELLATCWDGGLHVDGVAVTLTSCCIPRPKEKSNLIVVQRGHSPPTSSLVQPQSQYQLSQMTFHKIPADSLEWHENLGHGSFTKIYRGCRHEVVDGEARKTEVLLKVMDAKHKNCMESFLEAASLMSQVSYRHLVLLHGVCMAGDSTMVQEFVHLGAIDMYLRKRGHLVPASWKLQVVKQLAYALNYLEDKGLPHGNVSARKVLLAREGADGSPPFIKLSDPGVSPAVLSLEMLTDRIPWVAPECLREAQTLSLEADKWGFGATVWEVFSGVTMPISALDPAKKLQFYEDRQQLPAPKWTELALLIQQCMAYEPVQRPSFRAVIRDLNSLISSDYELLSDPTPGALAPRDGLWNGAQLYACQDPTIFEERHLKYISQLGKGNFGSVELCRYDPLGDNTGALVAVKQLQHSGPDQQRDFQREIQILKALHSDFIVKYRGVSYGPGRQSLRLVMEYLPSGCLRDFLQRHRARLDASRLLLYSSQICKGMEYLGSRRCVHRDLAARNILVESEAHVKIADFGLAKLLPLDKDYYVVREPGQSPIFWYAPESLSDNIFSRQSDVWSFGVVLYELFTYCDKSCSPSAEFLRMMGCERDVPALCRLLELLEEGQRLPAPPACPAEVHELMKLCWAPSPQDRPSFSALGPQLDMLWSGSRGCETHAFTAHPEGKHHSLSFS
The experiment in a line: Competition binding assay to determine Kd against JAK kinases: JAK3.
Excerpt: as §1, §2

Assay [1] relates to GM-CSFR/JAK2/STAT5 pathway. Briefly: csTF-1 cell-based reporter assay. The conditions noted are these: Homo sapiens; csTF-1 cells, GM-CSF at 2 ng/mL, 4 hours; read-out: Cell Assay: CS TF-1 reporter assay IC50. The protocol: csTF-1 Cell-Based Reporter Assay
csTF-1 cells are derived from the human erythroleukemia cell line that is growth dependent on GM-CSF and has an intact GM-CSFR/JAK2/STAT5 pathway. The cell line contains stably integrated beta-lactamase reporter gene under the control of the […] (irf 1) response element recognized by the activated transcription factor STATS. csTF-1 cells (Invitrogen K1219) were washed with assay media (97% OPTIMEM/0.5% dialyzed FBS/0.1 mM NEAA/1 mM Na pyr/P/S) and seeded in the same media at 5×10^5 cell/mL in T150 flask. After 16 hour incubation, cells were seeded at 2×10^5 cell/well in 50 μl volume, into Costar, clear bottom, 96-well assay plates. Serial dilutions of compounds were added to the plates with final DMSO concentration at 0.5% and GM-CSF at 2 ng/mL and the plates were then incubated at […] and 5% CO2 for 4 hours. The plates were brought to room temperature before adding Substrate Mixture according to manufacturer's protocol (Invitrogen, Catalog #K1085). The assay plates containing the substrate mixture were incubated in the dark at room temperature for 2 hours. Blue and green fluorescence was measured with excitation at 409 nm and emission at 460 nm (for blue) and excitation at 409 nm and emission at 530 nm (for green) using Spectra Max Gemini EM.

T1 sequence (P29597 whole entry): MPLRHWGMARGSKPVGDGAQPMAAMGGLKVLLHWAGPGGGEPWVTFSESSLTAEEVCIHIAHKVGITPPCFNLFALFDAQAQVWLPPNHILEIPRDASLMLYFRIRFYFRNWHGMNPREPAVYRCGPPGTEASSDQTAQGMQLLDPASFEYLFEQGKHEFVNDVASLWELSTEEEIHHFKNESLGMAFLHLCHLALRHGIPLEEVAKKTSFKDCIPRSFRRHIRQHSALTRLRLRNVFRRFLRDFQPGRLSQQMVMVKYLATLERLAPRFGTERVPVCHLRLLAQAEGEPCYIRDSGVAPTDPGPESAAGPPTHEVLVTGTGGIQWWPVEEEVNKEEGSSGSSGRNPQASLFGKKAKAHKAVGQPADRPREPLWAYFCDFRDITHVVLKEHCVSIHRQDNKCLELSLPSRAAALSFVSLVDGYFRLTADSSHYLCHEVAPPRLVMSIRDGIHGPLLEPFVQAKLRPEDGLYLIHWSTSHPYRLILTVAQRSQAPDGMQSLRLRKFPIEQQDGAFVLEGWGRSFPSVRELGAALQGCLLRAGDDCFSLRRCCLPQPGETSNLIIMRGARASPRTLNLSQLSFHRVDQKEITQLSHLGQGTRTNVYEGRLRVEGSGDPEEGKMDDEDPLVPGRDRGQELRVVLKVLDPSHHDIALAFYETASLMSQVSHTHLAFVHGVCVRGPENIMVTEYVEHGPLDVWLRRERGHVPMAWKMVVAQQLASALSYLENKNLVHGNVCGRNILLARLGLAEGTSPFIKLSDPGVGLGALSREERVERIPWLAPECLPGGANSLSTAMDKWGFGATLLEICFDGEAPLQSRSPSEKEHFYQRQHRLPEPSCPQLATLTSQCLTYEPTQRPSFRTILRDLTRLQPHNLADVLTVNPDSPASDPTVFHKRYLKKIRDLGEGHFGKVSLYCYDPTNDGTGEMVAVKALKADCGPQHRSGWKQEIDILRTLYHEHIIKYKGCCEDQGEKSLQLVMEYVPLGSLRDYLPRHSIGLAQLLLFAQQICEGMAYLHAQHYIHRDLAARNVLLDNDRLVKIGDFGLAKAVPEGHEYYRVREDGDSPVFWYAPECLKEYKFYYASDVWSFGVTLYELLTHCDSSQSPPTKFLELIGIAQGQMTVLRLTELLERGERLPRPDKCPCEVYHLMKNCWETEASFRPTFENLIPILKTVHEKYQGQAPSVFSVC
T2 sequence (O60674 whole entry): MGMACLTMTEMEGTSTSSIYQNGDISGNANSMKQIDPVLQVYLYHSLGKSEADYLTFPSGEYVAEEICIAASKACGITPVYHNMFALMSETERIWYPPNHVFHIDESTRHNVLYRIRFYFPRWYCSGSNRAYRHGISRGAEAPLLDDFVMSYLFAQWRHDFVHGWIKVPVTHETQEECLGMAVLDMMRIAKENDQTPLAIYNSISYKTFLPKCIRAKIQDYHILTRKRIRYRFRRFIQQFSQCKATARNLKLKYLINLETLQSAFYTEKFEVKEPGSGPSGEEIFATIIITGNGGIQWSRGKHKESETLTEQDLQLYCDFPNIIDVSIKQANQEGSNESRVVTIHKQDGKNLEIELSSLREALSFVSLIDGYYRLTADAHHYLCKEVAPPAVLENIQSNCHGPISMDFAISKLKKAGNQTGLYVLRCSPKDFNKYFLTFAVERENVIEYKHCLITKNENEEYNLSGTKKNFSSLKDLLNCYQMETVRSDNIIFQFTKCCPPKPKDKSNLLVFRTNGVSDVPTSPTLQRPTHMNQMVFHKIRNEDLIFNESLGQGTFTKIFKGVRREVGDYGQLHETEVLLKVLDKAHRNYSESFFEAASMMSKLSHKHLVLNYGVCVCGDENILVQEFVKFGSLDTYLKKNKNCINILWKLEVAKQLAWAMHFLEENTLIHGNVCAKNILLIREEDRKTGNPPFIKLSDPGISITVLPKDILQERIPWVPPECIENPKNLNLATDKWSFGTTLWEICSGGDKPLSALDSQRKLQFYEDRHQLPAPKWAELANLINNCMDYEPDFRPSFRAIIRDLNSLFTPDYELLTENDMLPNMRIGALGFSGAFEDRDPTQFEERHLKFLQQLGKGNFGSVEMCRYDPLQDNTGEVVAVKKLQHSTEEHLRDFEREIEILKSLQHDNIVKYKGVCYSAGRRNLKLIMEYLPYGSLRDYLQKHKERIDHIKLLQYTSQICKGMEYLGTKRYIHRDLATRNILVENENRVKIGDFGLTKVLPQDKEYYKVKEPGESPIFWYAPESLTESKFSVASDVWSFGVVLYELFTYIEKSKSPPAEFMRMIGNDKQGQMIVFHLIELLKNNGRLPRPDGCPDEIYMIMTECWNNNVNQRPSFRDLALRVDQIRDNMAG

For orientation: Kd means the free concentration of one partner at which half of the binding sites on the other are occupied at equilibrium, for simple one-to-one binding. High values mean weaker binding, low ones tighter binding. For orientation: IC50 means the concentration that gives 50% inhibition. Regarding `Cc1cc(Nc2nc(C(F)(F)c3ccc(F)cn3)nc3c(C(F)(F)F)cccc23)n[nH]1` [Example 33, 2-(difluoro(5-fluoropyridin-2-yl)methyl)-N-(5-methyl-1H-pyrazol-3-yl)-8-(trifluoromethyl)quinazolin-4-amine], the Kd at Tyk2 was 0.01 to 0.1 µM; at JAK2, 0.001 to 0.01 µM; on JAK3, greater than 0.1 µM. Also, the IC50 in assay [1] is 0.1 to 0.5 µM.
The corresponding values for `Cc1cc(Nc2nc(C(F)(F)c3ncc(F)cn3)nc3ccccc23)n[nH]1` [Example 3, 2-(difluoro(5-fluoropyrimidin-2-yl)methyl)-N-(5-methyl-1H-pyrazol-3-yl)quinazolin-4-amine] are no more than 0.01 µM, no more than 0.001 µM, 0.01 to 0.1 µM and no more than 0.1 µM.
The corresponding values for `Fc1ccc(C(F)(F)c2nc(Nc3cc[nH]n3)c3ccccc3n2)nc1` [Example 4, 2-(difluoro(5-fluoropyridin-2-yl)methyl)-N-(1H-pyrazol-3-yl)quinazolin-4-amine] are no more than 0.01 µM, no more than 0.001 µM, 0.01 to 0.1 µM and no more than 0.1 µM.
The like results for `Cc1cc(Nc2nc(C(F)(F)c3ccc(F)cn3)nc3c(O)cccc23)n[nH]1` [Example 46, 2-(difluoro(5-fluoropyridin-2-yl)methyl)-4-((5-methyl-1H-pyrazol-3-yl)amino)quinazolin-8-ol] were, in that order, no more than 0.01 µM, no more than 0.001 µM, no more than 0.01 µM and greater than 0.5 µM.
Turning to `Cc1cc(Nc2nc(C(F)(F)c3ccc(F)cn3)nc3c(N)cccc23)n[nH]1` [Example 50, 2-(difluoro(5-fluoropyridin-2-yl)methyl)-N4-(5-methyl-1H-pyrazol-3-yl)quinazoline-4,8-diamine], the Kd at Tyk2 was no more than 0.01 µM; on JAK2, no more than 0.001 µM; on JAK3, no more than 0.01 µM. The IC50 in assay [1] was no more than 0.1 µM.
Consider `Cc1cc(Nc2nc(C(F)(F)c3ccc(F)cn3)nc3c(OC(F)(F)F)cccc23)n[nH]1` [Example 34, 2-(difluoro(5-fluoropyridin-2-yl)methyl)-N-(5-methyl-1H-pyrazol-3-yl)-8-(trifluoromethoxy)quinazolin-4-amine], for which the Kd on Tyk2 was no more than 0.01 µM; at JAK2, 0.001 to 0.01 µM; at JAK3 it was 0.01 to 0.1 µM. Also, the IC50 in assay [1] fell in the range of 0.1 to 0.5 µM.
The corresponding values for `Cc1cc(Nc2nc(C(F)(F)c3ccc(F)cn3)nc3c(C(=O)NC4COC4)cccc23)n[nH]1` [Example 45, 2-(difluoro(5-fluoropyridin-2-yl)methyl)-4-((5-methyl-1H-pyrazol-3-yl)amino)-N-(oxetan-3-yl)quinazoline-8-carboxamide] are no more than 0.01 µM, no more than 0.001 µM, no more than 0.01 µM and no more than 0.1 µM.
For `Cc1cc(Nc2nc(C(F)(F)c3ccc(F)cn3)nc3c(C(=O)O)cccc23)n[nH]1` [Example 53, 2-(difluoro(5-fluoropyridin-2-yl)methyl)-4-((5-methyl-1H-pyrazol-3-yl)amino)quinazoline-8-carboxylic acid], the Kd on Tyk2 was no more than 0.01 µM; on JAK2 it was no more than 0.001 µM; on JAK3 it was no more than 0.01 µM. In addition, the IC50 in assay [1] lay within 0.1 to 0.5 µM.
In the case of `Cc1cc(Nc2nc(C(F)(F)c3ccc(F)cn3)nc3c(NC=O)cccc23)n[nH]1` [Example 44, N-(2-(difluoro(5-fluoropyridin-2-yl)methyl)-4-((5-methyl-1H-pyrazol-3-yl)amino)quinazolin-8-yl)formamide], the Kd is no more than 0.01 µM at Tyk2, no more than 0.001 µM at JAK2 and no more than 0.01 µM on JAK3. The IC50 in assay [1] was no more than 0.1 µM.
Regarding `Cc1cc(Nc2nc(C(F)(F)c3ccc(F)cn3)nc3c(C)cccc23)n[nH]1` [Example 10, 2-(Difluoro(5-fluoropyridin-2-yl)methyl)-8-methyl-N-(5-methyl-1H-pyrazol-3-yl)quinazolin-4-amine], the dissociation constant Kd at Tyk2 is no more than 0.01 µM; at JAK2, no more than 0.001 µM; on JAK3, no more than 0.01 µM. Besides, the IC50 in assay [1] is no more than 0.1 µM.
